In brackets after ≈: the same amount, converted by molar mass.
Legend:
Assay type in all cases: functional
Aspergillus flavus = assay: Antifungal activity against Aspergillus flavus ATCC 204304 by CLSI two fold serial dilution method
Escherichia coli [1] = assay: Antibacterial activity against Escherichia coli DH52 after 18 to 24 hrs by CLSI two fold serial dilution method
Staphylococcus aureus [2] = assay: Antibacterial activity against Staphylococcus aureus ATCC 25923 after 18 to 24 hrs by CLSI two fold serial dilution method
Aspergillus fumigatus = assay: Antifungal activity against drug-resistant Aspergillus fumigatus by CLSI two fold serial dilution method
Escherichia coli [3] = assay: Antibacterial activity against drug-resistant Escherichia coli after 18 to 24 hrs by CLSI two fold serial dilution method
Staphylococcus aureus [4] = assay: Antibacterial activity against methicillin-resistant Staphylococcus aureus N315 after 18 to 24 hrs by CLSI two fold serial dilution method
Acinetobacter baumannii = assay: Antibacterial activity against drug-resistant Acinetobacter baumannii after 18 to 24 hrs by CLSI two fold serial dilution method
Pseudomonas aeruginosa [5] = assay: Antibacterial activity against drug-resistant Pseudomonas aeruginosa after 18 to 24 hrs by CLSI two fold serial dilution method
Cyberlindnera jadinii = assay: Antifungal activity against Candida utilis ATCC 9950 by CLSI two fold serial dilution method; details: Williopsis jadinii
Klebsiella pneumoniae = assay: Antibacterial activity against drug-resistant Klebsiella pneumoniae after 18 to 24 hrs by CLSI two fold serial dilution method
Micrococcus luteus = assay: Antibacterial activity against Micrococcus luteus ATCC 4698 after 18 to 24 hrs by CLSI two fold serial dilution method
Bacillus subtilis = assay: Antibacterial activity against Bacillus subtilis ATCC 21216 after 18 to 24 hrs by CLSI two fold serial dilution method
Candida albicans [6] = assay: Antifungal activity against drug-resistant Candida albicans by CLSI two fold serial dilution method
Enterococcus faecalis = assay: Antibacterial activity against drug-resistant Enterococcus faecalis after 18 to 24 hrs by CLSI two fold serial dilution method
Saccharomyces cerevisiae = assay: Antifungal activity against Saccharomyces cerevisiae ATCC 9763 by CLSI two fold serial dilution method
Pichia norvegensis = assay: Antifungal activity against Candida mycoderma ATCC 96918 by CLSI two fold serial dilution method
Candida albicans [7] = assay: Antifungal activity against Candida albicans ATCC 76615 by CLSI two fold serial dilution method
Pseudomonas aeruginosa [8] = assay: Antibacterial activity against Pseudomonas aeruginosa ATCC 27853 after 18 to 24 hrs by CLSI two fold serial dilution method
Candida tropicalis = assay: Antifungal activity against drug-resistant Candida tropicalis by CLSI two fold serial dilution method
Candida parapsilosis = assay: Antifungal activity against Candida parapsilosis ATCC 22019 by CLSI two fold serial dilution method; details: Lodderomyces parapsilosis

Structure (SMILES)	MIC (Aspergillus flavus) [µM]	MIC (Escherichia coli [1]) [µM]	MIC (Staphylococcus aureus [2]) [µM]	MIC (Aspergillus fumigatus) [µM]	MIC (Escherichia coli [3]) [µM]	MIC (Staphylococcus aureus [4]) [µM]	MIC (Acinetobacter baumannii) [µM]	MIC (Pseudomonas aeruginosa [5]) [µM]	MIC (Cyberlindnera jadinii) [µM]	MIC (Klebsiella pneumoniae) [µM]	MIC (Micrococcus luteus) [µM]	MIC (Bacillus subtilis) [µM]	MIC (Candida albicans [6]) [µM]	MIC (Enterococcus faecalis) [µM]	MIC (Saccharomyces cerevisiae) [µM]	MIC (Pichia norvegensis) [µM]	MIC (Candida albicans [7]) [µM]	MIC (Pseudomonas aeruginosa [8]) [µM]	MIC (Candida tropicalis) [µM]	MIC (Candida parapsilosis) [µM]
CCCCCCCCOc1c(OC)cc(/C=N/NC(N)=S)c2c1CN1CCc3cc4c(cc3C1C2)OCO4 (stereo not given)	240 (≈ 129 µg/mL)	240 (≈ 129 µg/mL)	60 (≈ 32.3 µg/mL)	60 (≈ 32.3 µg/mL)	240 (≈ 129 µg/mL)	120 (≈ 64.6 µg/mL)	240 (≈ 129 µg/mL)	120 (≈ 64.6 µg/mL)	240 (≈ 129 µg/mL)	240 (≈ 129 µg/mL)	240 (≈ 129 µg/mL)	240 (≈ 129 µg/mL)	240 (≈ 129 µg/mL)	120 (≈ 64.6 µg/mL)	480 (≈ 259 µg/mL)	240 (≈ 129 µg/mL)	240 (≈ 129 µg/mL)	120 (≈ 64.6 µg/mL)	120 (≈ 64.6 µg/mL)	120 (≈ 64.6 µg/mL)
COc1cc(/C=N/NC(N)=S)c2c(c1OCCO)CN1CCc3cc4c(cc3C1C2)OCO4 (stereo not given)	270 (≈ 127 µg/mL)	270 (≈ 127 µg/mL)	270 (≈ 127 µg/mL)	270 (≈ 127 µg/mL)	270 (≈ 127 µg/mL)	270 (≈ 127 µg/mL)	540 (≈ 254 µg/mL)	140 (≈ 65.9 µg/mL)	270 (≈ 127 µg/mL)	270 (≈ 127 µg/mL)	270 (≈ 127 µg/mL)	270 (≈ 127 µg/mL)	270 (≈ 127 µg/mL)	30 (≈ 14.1 µg/mL)	540 (≈ 254 µg/mL)	140 (≈ 65.9 µg/mL)	270 (≈ 127 µg/mL)	140 (≈ 65.9 µg/mL)	270 (≈ 127 µg/mL)	20 (≈ 9.41 µg/mL)
C=CCOc1c(OC)cc(/C=N/NC(N)=S)c2c1CN1CCc3cc4c(cc3C1C2)OCO4 (stereo not given)	270 (≈ 126 µg/mL)	140 (≈ 65.3 µg/mL)	70 (≈ 32.7 µg/mL)	70 (≈ 32.7 µg/mL)	140 (≈ 65.3 µg/mL)	70 (≈ 32.7 µg/mL)	70 (≈ 32.7 µg/mL)	140 (≈ 65.3 µg/mL)	270 (≈ 126 µg/mL)	550 (≈ 257 µg/mL)	270 (≈ 126 µg/mL)	270 (≈ 126 µg/mL)	140 (≈ 65.3 µg/mL)	140 (≈ 65.3 µg/mL)	550 (≈ 257 µg/mL)	270 (≈ 126 µg/mL)	140 (≈ 65.3 µg/mL)	140 (≈ 65.3 µg/mL)	70 (≈ 32.7 µg/mL)	30 (≈ 14 µg/mL)
C#CCOc1c(OC)cc(/C=N/NC(N)=S)c2c1CN1CCc3cc4c(cc3C1C2)OCO4 (stereo not given)	550 (≈ 256 µg/mL)	140 (≈ 65 µg/mL)	70 (≈ 32.5 µg/mL)	20 (≈ 9.29 µg/mL)	140 (≈ 65 µg/mL)	30 (≈ 13.9 µg/mL)	4 (≈ 1.86 µg/mL)	550 (≈ 256 µg/mL)	280 (≈ 130 µg/mL)	140 (≈ 65 µg/mL)	280 (≈ 130 µg/mL)	550 (≈ 256 µg/mL)	140 (≈ 65 µg/mL)	550 (≈ 256 µg/mL)	280 (≈ 130 µg/mL)	1100 (≈ 511 µg/mL)	140 (≈ 65 µg/mL)	550 (≈ 256 µg/mL)	140 (≈ 65 µg/mL)	280 (≈ 130 µg/mL)
COc1cc(/C=N/NC(N)=S)c2c(c1OCc1ccccc1)CN1CCc3cc4c(cc3C1C2)OCO4 (stereo not given)	250 (≈ 129 µg/mL)	250 (≈ 129 µg/mL)	120 (≈ 62 µg/mL)	60 (≈ 31 µg/mL)	250 (≈ 129 µg/mL)	120 (≈ 62 µg/mL)	120 (≈ 62 µg/mL)	250 (≈ 129 µg/mL)	250 (≈ 129 µg/mL)	500 (≈ 258 µg/mL)	250 (≈ 129 µg/mL)	250 (≈ 129 µg/mL)	250 (≈ 129 µg/mL)	250 (≈ 129 µg/mL)	250 (≈ 129 µg/mL)	500 (≈ 258 µg/mL)	250 (≈ 129 µg/mL)	250 (≈ 129 µg/mL)	250 (≈ 129 µg/mL)	30 (≈ 15.5 µg/mL)
COc1cc(/C=N/NC(N)=S)c2c(c1OCc1cccc(Cl)c1)CN1CCc3cc4c(cc3C1C2)OCO4 (stereo not given)	230 (≈ 127 µg/mL)	230 (≈ 127 µg/mL)	60 (≈ 33.1 µg/mL)	120 (≈ 66.1 µg/mL)	470 (≈ 259 µg/mL)	120 (≈ 66.1 µg/mL)	120 (≈ 66.1 µg/mL)	470 (≈ 259 µg/mL)	470 (≈ 259 µg/mL)	120 (≈ 66.1 µg/mL)	470 (≈ 259 µg/mL)	120 (≈ 66.1 µg/mL)	470 (≈ 259 µg/mL)	230 (≈ 127 µg/mL)	230 (≈ 127 µg/mL)	120 (≈ 66.1 µg/mL)	230 (≈ 127 µg/mL)	230 (≈ 127 µg/mL)	230 (≈ 127 µg/mL)	120 (≈ 66.1 µg/mL)

— ChEMBL document CHEMBL4145497, “Discovery of 2-aminothiazolyl berberine derivatives as effectively antibacterial agents toward clinically drug-resistant Gram-negative Acinetobacter baumanii” (Eur J Med Chem, 2018)
